From ChEMBL document CHEMBL1201862, “PubChem BioAssay data set” (2004)
“And” between values parts separate entries of the source, which are not always exact repeats. Identical values can stand only once.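 Results reflect a 48-hour exposure of cells in 96-well plates to compound at five concentrations. GI50 = concentration required for 50% inhibition of growth.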 The source made the active and inactive calls. Cut-off read from the data, not from the text of the source: active = GI50 up to about 1.1 µM and inactive = higher.

Assays:
Experiment in all cases: inhibition of tumour cell growth, NCI panel, 48 h
MOLT-4 = system: MOLT-4
HOP-92 = system: HOP-92
786-0 = system: 786-0
A498 = system: A498
A549 = system: A549
ACHN = system: ACHN
CAKI-1 = system: CAKI-1
CCRF-CEM = system: CCRF-CEM
COLO 205 = system: COLO 205
DU-145 = system: DU-145
EKVX = system: EKVX
HCC 2998 = system: HCC 2998
HCT-116 = system: HCT-116
HCT-15 = system: HCT-15
HOP-62 = system: HOP-62
HT-29 = system: HT-29
Hs-578T = system: Hs-578T
IGROV-1 = system: IGROV-1
K562 = system: K562
KM12 = system: KM12
LOX IMVI = system: LOX IMVI
M14 = system: M14
MCF7 = system: MCF7
MDA-MB-231 = system: MDA-MB-231
MDA-MB-435 = system: MDA-MB-435
MDA-N = system: MDA-N
Malme-3M = system: Malme-3M
NCI-H226 = system: NCI-H226
NCI-H23 = system: NCI-H23
NCI-H460 = system: NCI-H460
NCI-H522 = system: NCI-H522
NCI/ADR-RES = system: NCI/ADR-RES
OVCAR-3 = system: OVCAR-3
OVCAR-4 = system: OVCAR-4
OVCAR-8 = system: OVCAR-8
PC-3 = system: PC-3
RPMI-8226 = system: RPMI-8226
RXF 393 = system: RXF 393
SF-268 = system: SF-268
SF-295 = system: SF-295
SF-539 = system: SF-539
SK-MEL-28 = system: SK-MEL-28
SK-MEL-5 = system: SK-MEL-5
SK-OV-3 = system: SK-OV-3
SN12C = system: SN12C
SNB-19 = system: SNB-19
SNB-75 = system: SNB-75
SR = system: SR
SW-620 = system: SW-620
U-251 = system: U-251
UACC-257 = system: UACC-257
UACC-62 = system: UACC-62
UO-31 = system: UO-31
HL-60 = system: HL-60
OVCAR-5 = system: OVCAR-5
SK-MEL-2 = system: SK-MEL-2
T47D = system: T47D
TK-10 = system: TK-10

SMILES: Nc1ncn(C2OC(CO)C(O)C2O)c(=O)n1 (configuration not stated)
- GI50 (MOLT-4): 735 nM (active) and 1.22 µM (inactive)

SMILES: Cc1nc(=O)n2c(c1C(=O)Nc1ccc(Cl)cc1)NCC2
- GI50 (HOP-92): 47.8 µM (inactive)

SMILES: COc1cc2c(c3nc4ccccc4nc13)-c1ccc(SC)c(=O)cc1[C@@H](NC(C)=O)CC2
- GI50 (786-0): 0.115 µM (active)
- GI50 (A498): 0.82 µM (active)
- GI50 (A549): 0.377 µM (active)
- GI50 (ACHN): 1.15 µM (inactive)
- GI50 (CAKI-1): 1.83 µM (inactive)
- GI50 (CCRF-CEM): 0.0601 µM (active)
- GI50 (COLO 205): 0.0262 µM (active)
- GI50 (DU-145): 0.129 µM (active)
- GI50 (EKVX): 0.0525 µM (active)
- GI50 (HCC 2998): 0.0935 µM (active)
- GI50 (HCT-116): 0.0372 µM (active)
- GI50 (HCT-15): 1.23 µM
- GI50 (HOP-62): 0.405 µM (active)
- GI50 (HOP-92): 0.149 µM (active)
- GI50 (HT-29): 0.0364 µM (active)
- GI50 (Hs-578T): 0.0182 µM (active)
- GI50 (IGROV-1): 0.0267 µM (active)
- GI50 (K562): 0.0328 µM (active)
- GI50 (KM12): 0.0193 µM (active)
- GI50 (LOX IMVI): 0.0542 µM (active)
- GI50 (M14): 0.0617 µM (active)
- GI50 (MCF7): 0.0485 µM (active)
- GI50 (MDA-MB-231): 0.0966 µM (active)
- GI50 (MDA-MB-435): 0.0166 µM (active)
- GI50 (MDA-N): 0.0188 µM (active)
- GI50 (MOLT-4): 43.8 nM (active)
- GI50 (Malme-3M): 0.0106 µM (active)
- GI50 (NCI-H226): 0.135 µM (active)
- GI50 (NCI-H23): 0.0247 µM (active)
- GI50 (NCI-H460): 0.0893 µM (active)
- GI50 (NCI-H522): 0.0327 µM (active)
- GI50 (NCI/ADR-RES): 6.9 µM (inactive)
- GI50 (OVCAR-3): 0.0545 µM (active)
- GI50 (OVCAR-4): 0.0562 µM (active)
- GI50 (OVCAR-8): 0.0815 µM (active)
- GI50 (PC-3): 0.0479 µM (active)
- GI50 (RPMI-8226): 0.0387 µM (active)
- GI50 (RXF 393): > 100 µM (inactive)
- GI50 (SF-268): 0.144 µM (active)
- GI50 (SF-295): 0.216 µM (active)
- GI50 (SF-539): 0.0248 µM (active)
- GI50 (SK-MEL-28): > 56.4 µM (inactive)
- GI50 (SK-MEL-5): 0.0347 µM (active)
- GI50 (SK-OV-3): 0.266 µM (active)
- GI50 (SN12C): 0.0968 µM (active)
- GI50 (SNB-19): 0.0475 µM (active)
- GI50 (SNB-75): 0.0313 µM (active)
- GI50 (SR): 0.0158 µM (active)
- GI50 (SW-620): 0.0752 µM (active)
- GI50 (U-251): 0.0345 µM (active)
- GI50 (UACC-257): 0.069 µM (active)
- GI50 (UACC-62): 0.0373 µM (active)
- GI50 (UO-31): 6.3 µM (inactive)

SMILES: CCCCCCCN(CCCCCCC)CC(O)c1cc2ccccc2c2cc(Br)ccc12 (configuration not stated)
- GI50 (786-0): 31.6 µM (inactive)
- GI50 (A498): > 100 µM (inactive)
- GI50 (ACHN): 24.5 µM (inactive)
- GI50 (CAKI-1): 47.6 µM (inactive)
- GI50 (CCRF-CEM): 40.9 µM (inactive)
- GI50 (COLO 205): 24.8 µM (inactive)
- GI50 (DU-145): 8.07 µM (inactive)
- GI50 (EKVX): 25.8 µM (inactive)
- GI50 (HCC 2998): 15.2 µM (inactive)
- GI50 (HCT-116): 21.1 µM (inactive)
- GI50 (HCT-15): 7.53 µM
- GI50 (HL-60): 39.2 µM (inactive)
- GI50 (HOP-62): 24.7 µM (inactive)
- GI50 (HOP-92): 19.2 µM (inactive)
- GI50 (HT-29): 67 µM (inactive)
- GI50 (IGROV-1): 62.1 µM (inactive)
- GI50 (K562): 30.7 µM (inactive)
- GI50 (LOX IMVI): 14.2 µM (inactive)
- GI50 (M14): 22.6 µM (inactive)
- GI50 (MCF7): 12.7 µM (inactive)
- GI50 (MDA-MB-231): 5.98 µM (inactive)
- GI50 (MDA-MB-435): 33.1 µM (inactive)
- GI50 (MDA-N): 28.5 µM (inactive)
- GI50 (MOLT-4): 35100 nM (inactive)
- GI50 (Malme-3M): 19.5 µM (inactive)
- GI50 (NCI-H23): 36 µM (inactive)
- GI50 (NCI-H460): 23.1 µM (inactive)
- GI50 (NCI-H522): 28.7 µM (inactive)
- GI50 (NCI/ADR-RES): > 100 µM (inactive)
- GI50 (OVCAR-3): 17.9 µM (inactive)
- GI50 (OVCAR-4): > 100 µM (inactive)
- GI50 (OVCAR-5): > 100 µM (inactive)
- GI50 (OVCAR-8): 30.3 µM (inactive)
- GI50 (PC-3): 24.2 µM (inactive)
- GI50 (RPMI-8226): 24.9 µM (inactive)
- GI50 (SF-268): 19 µM (inactive)
- GI50 (SF-295): > 10 µM (inactive)
- GI50 (SF-539): > 100 µM (inactive)
- GI50 (SK-MEL-28): 36.6 µM (inactive)
- GI50 (SK-MEL-2): 33.1 µM (inactive)
- GI50 (SK-OV-3): > 100 µM (inactive)
- GI50 (SN12C): 6.58 µM (inactive)
- GI50 (SNB-19): 38.7 µM (inactive)
- GI50 (SNB-75): 34.9 µM (inactive)
- GI50 (SR): 22.6 µM (inactive)
- GI50 (SW-620): 23.1 µM (inactive)
- GI50 (T47D): 43 µM (inactive)
- GI50 (TK-10): 47.6 µM (inactive)
- GI50 (U-251): 18.3 µM (inactive)
- GI50 (UACC-257): 40.4 µM (inactive)
- GI50 (UACC-62): 20.4 µM (inactive)
- GI50 (UO-31): 57.1 µM (inactive)
